Results taken from ChEMBL document CHEMBL1938244, “Synthesis, anticancer activity and apoptosis inducing ability of bisindole linked pyrrolo[2,1-c][1,4]benzodiazepine conjugates” (2012).
Activity calls are given as the source filed them. The rule behind the calls is not given here.

Columns and labels:
Tubulin (Homo sapiens) = Tubulin (Homo sapiens) (UniProt P68371+Q9H4B7+P0DPH7+P68366+Q13509+Q71U36+P04350+Q3ZCM7+P07437+P68363+Q9BQE3+Q6PEY2+Q13885+Q9BVA1+Q9BUF5); test: Inhibition of tubulin polymerization in human MCF7 cells at 2 uM after 24 hrs by FITC-conjugated immunostaining assay; format: cell-based
MCF7 [1] = test: Inhibition of HDAC1 protein expression in human MCF7 cells at 2 uM after 24 hrs by Western blotting; format: functional, cell-based
MCF7 [2] = test: Inhibition of HDAC2 protein expression in human MCF7 cells at 2 uM after 24 hrs by Western blotting; format: functional, cell-based
MCF7 [3] = test: Inhibition of HDAC3 protein expression in human MCF7 cells at 2 uM after 24 hrs by Western blotting; format: functional, cell-based
MCF7 [4] = test: Inhibition of HDAC8 protein expression in human MCF7 cells at 2 uM after 24 hrs by Western blotting; format: functional, cell-based
MCF7 [5] = test: Increase in p21 protein level in human MCF7 cells at 2 uM after 24 hrs by Western blotting; format: functional, cell-based
MCF7 [6] = test: Induction of apoptosis in human MCF7 cells assessed as PARP-cleavage at 8 uM after 24 hrs by Western blot analysis; format: functional, cell-based
MCF7 [7] = test: Induction of apoptosis in human MCF7 cells assessed as caspase-7 activation at 8 uM after 24 hrs by Western blot analysis; format: functional, cell-based
MCF7 [8] = test: Anticancer activity against human MCF7 cells by SRB method; format: functional
ZR-75-1 = test: Anticancer activity against human ZR-75-1 cells by SRB method; format: functional
A2780 = test: Anticancer activity against human A2780 cells by SRB method; format: functional
COLO 205 = test: Anticancer activity against human COLO205 cells by SRB method; format: functional
SiHa = test: Anticancer activity against human SiHa cells by SRB method; format: functional
A549 = test: Anticancer activity against human A549 cells by SRB method; format: functional
KB = test: Anticancer activity against human KB cells by SRB method; format: functional
MCF7 [9] = test: Anticancer activity against human MCF7 cells assessed as cell death at 2 uM after 24 hrs by MTT assay; format: functional
MCF7 [10] = test: Induction of cell cycle arrest in human MCF7 cells assessed as accumulation of cells in G0 phase at 2 uM after 24 hrs by flow cytometry relative to untreated control; format: functional
MCF7 [11] = test: Induction of cell cycle arrest in human MCF7 cells assessed as accumulation of cells in G1 phase at 2 uM after 24 hrs by flow cytometry relative to untreated control; format: functional
MCF7 [12] = test: Induction of cell cycle arrest in human MCF7 cells assessed as accumulation of cells in S phase at 2 uM after 24 hrs by flow cytometry relative to untreated control; format: functional
MCF7 [13] = test: Induction of cell cycle arrest in human MCF7 cells assessed as accumulation of cells in G2/M phase at 2 uM after 24 hrs by flow cytometry relative to untreated control; format: functional
MCF7 [14] = test: Induction of cell cycle arrest in human MCF7 cells assessed as accumulation of cells in G0 phase at 4 uM after 24 hrs by flow cytometry relative to untreated control; format: functional
MCF7 [15] = test: Induction of cell cycle arrest in human MCF7 cells assessed as accumulation of cells in G1 phase at 4 uM after 24 hrs by flow cytometry relative to untreated control; format: functional
MCF7 [16] = test: Induction of cell cycle arrest in human MCF7 cells assessed as accumulation of cells in S phase at 4 uM after 24 hrs by flow cytometry relative to untreated control; format: functional
MCF7 [17] = test: Induction of cell cycle arrest in human MCF7 cells assessed as accumulation of cells in G2/M phase at 4 uM after 24 hrs by flow cytometry relative to untreated control; format: functional
MCF7 [18] = test: Induction of cell cycle arrest in human MCF7 cells assessed as accumulation of cells in G0 phase at 8 uM after 24 hrs by flow cytometry relative to untreated control; format: functional
MCF7 [19] = test: Induction of cell cycle arrest in human MCF7 cells assessed as accumulation of cells in G1 phase at 8 uM after 24 hrs by flow cytometry relative to untreated control; format: functional
MCF7 [20] = test: Induction of cell cycle arrest in human MCF7 cells assessed as accumulation of cells in S phase at 8 uM after 24 hrs by flow cytometry relative to untreated control; format: functional
MCF7 [21] = test: Induction of cell cycle arrest in human MCF7 cells assessed as accumulation of cells in G2/M phase at 8 uM after 24 hrs by flow cytometry relative to untreated control; format: functional
MCF7 [22] = test: Induction of cell cycle arrest in human MCF7 cells assessed as accumulation of cells in G0 phase at 2 uM after 24 hrs by flow cytometry (reference value: 2.9%); format: functional
MCF7 [23] = test: Induction of cell cycle arrest in human MCF7 cells assessed as accumulation of cells in G1 phase at 2 uM after 24 hrs by flow cytometry (reference value: 46%); format: functional
MCF7 [24] = test: Induction of cell cycle arrest in human MCF7 cells assessed as accumulation of cells in S phase at 2 uM after 24 hrs by flow cytometry (reference value: 14.87%); format: functional
MCF7 [25] = test: Induction of cell cycle arrest in human MCF7 cells assessed as accumulation of cells in G2/M phase at 2 uM after 24 hrs by flow cytometry (reference value: 36.23%); format: functional
MCF7 [26] = test: Induction of cell cycle arrest in human MCF7 cells assessed as accumulation of cells in G0 phase at 4 uM after 24 hrs by flow cytometry (reference value: 3.22%); format: functional
MCF7 [27] = test: Induction of cell cycle arrest in human MCF7 cells assessed as accumulation of cells in G1 phase at 4 uM after 24 hrs by flow cytometry (reference value: 65.58%); format: functional
MCF7 [28] = test: Induction of cell cycle arrest in human MCF7 cells assessed as accumulation of cells in S phase at 4 uM after 24 hrs by flow cytometry (reference value: 5.55%); format: functional
MCF7 [29] = test: Induction of cell cycle arrest in human MCF7 cells assessed as accumulation of cells in G2/M phase at 4 uM after 24 hrs by flow cytometry (reference value: 25.65%); format: functional
MCF7 [30] = test: Induction of cell cycle arrest in human MCF7 cells assessed as accumulation of cells in G0 phase at 8 uM after 24 hrs by flow cytometry (reference value: 3.22%); format: functional
MCF7 [31] = test: Induction of cell cycle arrest in human MCF7 cells assessed as accumulation of cells in G1 phase at 8 uM after 24 hrs by flow cytometry (reference value: 65.58%); format: functional
MCF7 [32] = test: Induction of cell cycle arrest in human MCF7 cells assessed as accumulation of cells in S phase at 8 uM after 24 hrs by flow cytometry (reference value: 5.55%); format: functional
MCF7 [33] = test: Induction of cell cycle arrest in human MCF7 cells assessed as accumulation of cells in G2/M phase at 8 uM after 24 hrs by flow cytometry (reference value: 25.65%); format: functional

With COc1cc2c(cc1OCCCCCOc1ccc(C(c3c[nH]c4ccccc34)c3c[nH]c4ccccc34)cc1)N=C[C@@H]1CCCN1C2=O the inhibition (Tubulin (Homo sapiens)) was “Active”, the inhibition (MCF7 [1]) was “Active” and the inhibition (MCF7 [2]) was “Active”. For the same molecule, the inhibition (MCF7 [3]) was “Active”, the inhibition (MCF7 [4]) was “Active” and the Activity (MCF7 [5]) was “Active”. For the same molecule, the Activity (MCF7 [6]) was “Active”, the Activity (MCF7 [7]) was “Active” and the GI50 (MCF7 [8]) was 140 nM. The GI50 (ZR-75-1) was 120 nM, the GI50 (A2780) was 110 nM and the GI50 (COLO 205) was 26100 nM. For the same molecule, the GI50 (SiHa) was 180 nM, the GI50 (A549) was 2400 nM and the GI50 (KB) was 130 nM. For the same molecule, the Activity (MCF7 [9]) was 50%, the Activity (MCF7 [10]) was 3.57% and the Activity (MCF7 [11]) was 40.67%. For the same molecule, the Activity (MCF7 [12]) was 9.08%, the Activity (MCF7 [13]) was 46.67% and the Activity (MCF7 [14]) was 16.11%. For the same molecule, the Activity (MCF7 [15]) was 68.33%, the Activity (MCF7 [16]) was 6.95% and the Activity (MCF7 [17]) was 8.6%. It also gave an Activity (MCF7 [18]) of 50.15%, an Activity (MCF7 [19]) of 46.11% and an Activity (MCF7 [20]) of 2.32%. The Activity (MCF7 [21]) was 1.41%, the Activity (MCF7 [22]) was 3.96% and the Activity (MCF7 [23]) was 41.51%. The Activity (MCF7 [24]) was 9.34%, the Activity (MCF7 [25]) was 45.19% and the Activity (MCF7 [26]) was 16.45%. For the same molecule, the Activity (MCF7 [27]) was 68.23%, the Activity (MCF7 [28]) was 6.97% and the Activity (MCF7 [29]) was 8.35%. The Activity (MCF7 [30]) was 51.96%, the Activity (MCF7 [31]) was 44.26% and the Activity (MCF7 [32]) was 2.04%. For the same molecule, the Activity (MCF7 [33]) was 1.75%.
